Experimental data published in patent US20160038526A1, “TREATMENT OF PROSTATE CANCER” (THOMAS JEFFERSON UNIVERSITY, priority 2012, published 2016).

Key:
Stat5a = biological target: T1, Stat5a (Homo sapiens, UniProt P42229); assay: Stat5 dimerization assay (FLAG-/MYC-tagged Stat5a co-immunoprecipitation) in PC-3 cells; type: cell-based; parameters: expressed in transfected cells; host or cells: PC-3; settings: 2 hours pretreatment, hPrl 10 nM 30 minutes
T1 sequence (P42229 1-794): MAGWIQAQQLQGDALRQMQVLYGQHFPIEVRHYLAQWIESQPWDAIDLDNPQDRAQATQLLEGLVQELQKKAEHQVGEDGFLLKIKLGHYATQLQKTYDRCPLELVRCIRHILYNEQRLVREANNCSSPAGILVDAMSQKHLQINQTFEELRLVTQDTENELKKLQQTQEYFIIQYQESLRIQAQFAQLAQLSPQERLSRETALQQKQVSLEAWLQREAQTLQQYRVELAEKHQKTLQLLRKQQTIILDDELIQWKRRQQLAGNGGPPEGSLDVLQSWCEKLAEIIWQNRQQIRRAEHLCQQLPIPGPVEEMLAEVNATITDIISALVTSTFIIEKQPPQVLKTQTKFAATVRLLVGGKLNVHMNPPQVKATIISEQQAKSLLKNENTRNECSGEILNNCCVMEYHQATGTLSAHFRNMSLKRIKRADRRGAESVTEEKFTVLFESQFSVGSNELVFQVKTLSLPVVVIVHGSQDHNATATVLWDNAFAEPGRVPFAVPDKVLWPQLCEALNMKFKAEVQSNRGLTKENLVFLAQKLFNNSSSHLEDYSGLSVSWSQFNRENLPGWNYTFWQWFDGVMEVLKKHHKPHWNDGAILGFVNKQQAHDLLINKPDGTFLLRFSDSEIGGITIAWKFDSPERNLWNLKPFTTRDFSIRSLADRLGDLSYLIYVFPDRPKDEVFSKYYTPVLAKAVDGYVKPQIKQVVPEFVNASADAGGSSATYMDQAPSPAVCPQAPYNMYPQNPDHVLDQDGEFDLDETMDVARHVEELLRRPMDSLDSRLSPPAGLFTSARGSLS
Protocol: FLAG-tagged Stat5a and MYC-tagged Stat5a were generated as follows. Plasmid pCMV3-FLAG-Stat5a, pCMV3-MYC-Stat5a and pPrlR were co-transfected using FuGENE6 (Roche) into PC-3 cells (2 μg of each plasmid per 1×10^7 cells). The cells were starved for 20 hours, pretreated with N6BAP for 2 hours, then stimulated with hPrl (10 nM) in RPMI 1640 without serum for 30 minutes. The cell lysates were immunoprecipitated with 25 μl anti-FLAG M2 […] affinity gel (2 μg/ml, Sigma), anti-MYC pAb (1 μg/ml, Upstate) or normal rabbit serum (NRS). The primary antibodies were used in the immunoblottings at the following concentrations: anti-FLAG pAb (1:1000; Stratagene), anti-MYC mAb (1:1000; Sigma), anti-Stat5a/b mAb (1:250) (Transduction Laboratories) detected by horseradish peroxidase-conjugated secondary antibodies.
Lanes 1, 2, 4, 6, 8, 10, 12, 14 and 16 represent cells stimulated with human prolactin (Prl) for 30 minutes which induces dimerization of Stat5. Two hours prior to Prl-stimulation, the cells had been treated with DMSO (lanes 1-4), the control compound C5 (lanes 5 and 6) or N6BAP (lanes 7-16) to test whether the Stat5a/b-inhibitor compound, N6BAP, would be able to inhibit dimerization of Stat5. […] It should be noted the drug effect in this study was not due to cell apoptosis induction, as the treatment time was only 2 hours. […]

Stat5a/b = assay: Clinical prostate cancers ex vivo in explant organ cultures: nuclear Stat5a/b immunohistochemistry; type: cell-based, human; settings: 7 days, N6BAP 5, 10, 25, 50 and 100 μM; C5 100 m
Protocol: The specimens comprised de-identified excess tissue obtained after the completion of pathology diagnosis. A zero-sample prior to organ culture was formalin-fixed for each individual prostate cancer for the analysis of the nuclear Stat5a/b status. The prostate organ cultures were performed as described earlier (Ahonen et al., Endocrinology (2002), 143:228-238). Briefly, prostate cancer tissue was cut into approximately 1 mm^3 pieces in a plain culture medium and transferred onto lens papers lying on stainless steel grids in petri dishes. The medium was phenol-free medium 199 with Earle's salts (Sigma) containing dialyzed 5% fetal calf serum, G-penicillin (100 IU/ml), streptomycin sulfate ([…]), and glutamine (100 μg/ml). […] Tissue explants were cultured in a medium containing the N6BAP or control compound C5 at indicated concentrations (C5: […]; N6BAP: 5, 10, 25, 50 and 100 μM) 7 days, after which the explants were fixed in formalin and analyzed for Stat5a/b activation and viability of prostate cancer epithelial compartment. Viability of the epithelial cells in the prostate cancer explants at the end of the cultures were scored by counting the viable epithelial cells per explant.
Nuclear Stat5a/b indexes were determined by counting the Stat5-positive cells per 500 epithelial cells in the cultured explants in each treatment group.

Stat3 = Stat3 (Homo sapiens, UniProt P40763); assay: IL-6-induced nuclear translocation of Stat3 in DU145 cells (immunofluorescence); type: cell-based; parameters: endogenous in cells; host or cells: DU145; settings: 2 hours pretreatment, 10 nmol/L IL-6 30 minutes
Chain of Stat3 (P40763 whole entry, species assumed): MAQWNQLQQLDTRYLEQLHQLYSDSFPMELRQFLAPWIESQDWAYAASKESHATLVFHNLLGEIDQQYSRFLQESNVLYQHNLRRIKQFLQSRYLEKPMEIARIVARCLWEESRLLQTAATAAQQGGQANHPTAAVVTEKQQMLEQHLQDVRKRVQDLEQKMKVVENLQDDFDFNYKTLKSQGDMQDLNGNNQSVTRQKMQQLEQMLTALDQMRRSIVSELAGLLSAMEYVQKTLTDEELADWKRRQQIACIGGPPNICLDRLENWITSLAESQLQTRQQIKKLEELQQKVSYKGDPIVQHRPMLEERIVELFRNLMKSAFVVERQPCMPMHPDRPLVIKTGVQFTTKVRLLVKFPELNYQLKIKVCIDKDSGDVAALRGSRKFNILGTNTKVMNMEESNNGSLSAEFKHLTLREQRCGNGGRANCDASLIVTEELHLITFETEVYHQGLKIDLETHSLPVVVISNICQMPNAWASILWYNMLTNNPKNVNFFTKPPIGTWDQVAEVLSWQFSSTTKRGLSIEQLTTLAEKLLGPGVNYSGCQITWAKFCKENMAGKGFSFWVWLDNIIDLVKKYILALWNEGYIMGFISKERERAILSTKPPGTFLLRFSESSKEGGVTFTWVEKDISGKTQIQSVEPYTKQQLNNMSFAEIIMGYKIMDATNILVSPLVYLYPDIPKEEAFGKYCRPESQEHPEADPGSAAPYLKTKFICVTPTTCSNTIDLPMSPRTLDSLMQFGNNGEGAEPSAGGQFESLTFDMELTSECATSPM
Protocol: DU145 prostate cancer cells were pretreated with N6BAP or vehicle (DMSO) for 2 hours and then stimulated with 10 nmol/L IL-6 for 30 minutes. Cells were fixed with 100% methanol for 15 min and subsequently permeabilized with 0.1% Triton X-100 in PBS (pH 7.4). After blocking with 2% bovine serum albumin in PBS, cells were incubated with an antibody specific for Stat3 at 4° C. for 2 hours. Cells were then washed with PBS and incubated with FITC-conjugated secondary antibody (Jackson ImmunoResearch) at room temperature for 1 hour. The images were taken by using an inverted fluorescence microscopy (Carl Zeiss).

Row | dimerization of Stat5a (Stat5a) | Structure (SMILES) | nuclear Stat5 expression in explant organ cultures (Stat5a/b) | nuclear translocation of IL-6-induced Stat3 (Stat3)
1 | did not inhibit dimerization of Stat5a | Nc1nc(SCc2cccnc2)[nH]c(=O)c1NC(=O)c1ccco1 [C5, reference compound] | Intensive positive immunostaining for nuclear Stat5 | –
2 | – | Cc1cc(Nc2nc(N[C@@H](C)c3ncc(F)cn3)ncc2Cl)n[nH]1 [AZD1480, reference compound] | – | blocks nuclear translocation of IL-6-induced Stat3 efficiently
